Patent US6046329A, “Uracil derivatives” (Byk Gulden Lomberg Chemische Fabrik GmbH, priority 1994, dated 2000)

Key:
α1A receptor = biological target: T1, α1A receptor (Rattus norvegicus, UniProt P43140); assay: Radioligand binding with [3H]prazosine, affinity for α1A receptor subtype; settings: membranes from rat brain cortex, IC50 corrected according to Cheng and Prusoff; for Ki: read-out: Receptor affinity α1A, expressed in pKI values (converted)
T1 construct: membranes from rat brain cortex; from tissue; host or cells: rat brain cortex membranes
T1 sequence (P43140 1-466): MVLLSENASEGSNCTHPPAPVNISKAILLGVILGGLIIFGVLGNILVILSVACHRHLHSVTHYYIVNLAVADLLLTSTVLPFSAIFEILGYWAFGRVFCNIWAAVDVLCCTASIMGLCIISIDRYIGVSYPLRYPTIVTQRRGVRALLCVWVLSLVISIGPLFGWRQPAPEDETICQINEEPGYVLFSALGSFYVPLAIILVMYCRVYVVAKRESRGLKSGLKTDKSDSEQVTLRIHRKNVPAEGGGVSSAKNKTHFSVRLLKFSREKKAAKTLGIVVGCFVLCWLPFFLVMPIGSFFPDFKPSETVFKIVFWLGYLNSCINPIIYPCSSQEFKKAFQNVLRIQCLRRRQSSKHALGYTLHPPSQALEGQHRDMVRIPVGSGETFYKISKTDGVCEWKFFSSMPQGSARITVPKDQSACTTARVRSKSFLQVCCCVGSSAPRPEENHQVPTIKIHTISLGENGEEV
Description: (§1) The affinity of substances for α1 receptor subtypes was determined in radioligand binding studies using [^3 H]prazosine as a radioligand. 50-200 μg of membranes from rat brain cortex were incubated in a total volume of 0.5-1 ml with [^3 H]prazosine (0.2 to 0.5 nmol/l) in the presence of rising concentrations of substances. The incubation buffer used was 50 mmol/l tris/HCl pH 7.5, 1 mmol/l EDTA, 0.1 mmol/l PMSF. The nonspecific binding was determined in separate batches in the presence of 10 μmol/l of phentolamine or 1 μmol/l of prazosine. After 1 h at 37° C., the bound radioactivity was separated from the free radioactivity by rapid filtration of the incubation batch at 0° C. through glass fiber filters. The filters were washed twice with 3.5 ml each of cold filtration buffer (50 mmol/l tris/HCl pH 7.4, 10 mmol/l MgCl2, 10% polyethylene glycol 6000). The filter-bound radioactivity was determined by liquid scintillation counting. Substances with subtype selectivity for the α1 receptor subtypes were tested again in the presence of 3 nmol/l of WB 4101. WB4101 blocks the binding of [^3 H]prazosine to the α1A receptor subtype and the remaining binding corresponds to that to the α1B receptor.
(§2) For each substance, dose-response curves were plotted by means of nonlinear regression using the Inplot program (GraphPad, Sorento, Calif., USA). IC50 values were corrected by the concentration of the radioligand employed according to the formula of Cheng and Prusoff. The resulting KI values (see following table) represent the affinity of the respective substance for the tested receptor. The compounds according to the invention investigated according to the model illustrated in greater detail above have been provided in the following table with numbers which correspond to the numbers of these compounds in the examples.

5-HT1A receptor = biological target: T2, 5-HT1A receptor (Sus scrofa, UniProt A0A4X1UTF5); assay: Radioligand binding with [3H]8-OH-DPAT, affinity for 5-HT1A receptor; settings: membranes from pig brain cortex, IC50 corrected according to Cheng and Prusoff; for Ki: read-out: Receptor affinity 5-HT1A, expressed in pKI values (converted)
T2 construct: membranes from pig brain cortex; from tissue; host or cells: pig brain cortex membranes
T2 sequence (A0A4X1UTF5 1-422): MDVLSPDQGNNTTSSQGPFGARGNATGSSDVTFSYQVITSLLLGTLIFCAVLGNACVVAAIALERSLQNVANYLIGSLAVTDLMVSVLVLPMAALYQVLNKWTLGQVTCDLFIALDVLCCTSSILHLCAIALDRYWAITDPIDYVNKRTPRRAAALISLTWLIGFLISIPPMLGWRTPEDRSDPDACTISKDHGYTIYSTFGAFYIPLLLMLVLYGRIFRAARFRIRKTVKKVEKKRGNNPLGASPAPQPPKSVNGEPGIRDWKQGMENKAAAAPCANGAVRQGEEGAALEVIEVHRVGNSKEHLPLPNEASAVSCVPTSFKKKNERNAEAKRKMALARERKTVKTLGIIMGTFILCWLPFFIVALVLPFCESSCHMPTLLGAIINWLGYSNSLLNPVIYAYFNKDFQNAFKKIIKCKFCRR
Description: The affinity of substances for the 5-HT1A receptor was determined in radioligand binding studies using [^3 H]8-OH-DPAT as a radioligand. 50-150 μg of membranes from pig brain cortex were incubated in a total volume of 0.25-0.5 ml with [^3 H]8-OH-DPAT (0.2 to 0.4 nmol/l) in the presence of rising concentrations of substances. The incubation buffer used was 50 mmol/l tris/HCl pH 8.2, 1 mmol/l MnCl2. The nonspecific binding was determined in separate batches in the presence of 10 μmol/l of 5-HT. After 30 min at 23° C., the bound radioactivity was separated from the free radioactivity by rapid filtration of the incubation batch at 0° C. through glass fiber filters. The filters were washed twice with 3.5 ml each of cold filtration buffer (50 mmol/l tris/HCl pH 7.4, 10 mmol/l MgCl2, 10% polyethylene glycol 6000). The filter-bound radioactivity was determined by liquid scintillation counting.
as §2

α1B receptor = biological target: T3, α1B receptor (Rattus norvegicus, UniProt P15823); assay: Radioligand binding with [3H]prazosine (in the presence of WB 4101), affinity for α1B receptor subtype; settings: membranes from rat brain cortex, subtype-selective substances tested again in the presence of 3 nmol/l WB 4101, Cheng and Prusoff; for Ki: read-out: Receptor affinity α1B, expressed in pKI values (converted)
T3 construct: membranes from rat brain cortex; from tissue; host or cells: rat brain cortex membranes
T3 sequence (P15823 1-515): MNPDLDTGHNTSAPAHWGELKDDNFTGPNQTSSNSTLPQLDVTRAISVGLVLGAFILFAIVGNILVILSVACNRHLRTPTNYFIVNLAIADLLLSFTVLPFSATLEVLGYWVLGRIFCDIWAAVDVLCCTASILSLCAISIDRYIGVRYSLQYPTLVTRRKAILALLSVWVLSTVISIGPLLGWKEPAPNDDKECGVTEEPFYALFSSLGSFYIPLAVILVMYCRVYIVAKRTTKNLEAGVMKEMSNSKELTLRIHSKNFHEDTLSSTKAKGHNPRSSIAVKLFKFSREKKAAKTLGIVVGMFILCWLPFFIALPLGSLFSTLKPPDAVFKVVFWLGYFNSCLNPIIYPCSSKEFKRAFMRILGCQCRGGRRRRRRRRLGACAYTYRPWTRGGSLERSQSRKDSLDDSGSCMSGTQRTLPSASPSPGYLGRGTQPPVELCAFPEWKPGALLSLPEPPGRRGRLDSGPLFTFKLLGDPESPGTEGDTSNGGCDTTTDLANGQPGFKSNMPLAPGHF
Description: as §1, §2

COc1ccccc1N1CCN(CCCNc2c(Cc3c(NCCCN4CCN(c5ccccc5OC)CC4)n(C)c(=O)n(C)c3=O)c(=O)n(C)c(=O)n2C)CC1 [Compound 2]
Ki (α1A receptor): 0.398 nM | Ki (5-HT1A receptor): 12.6 nM | Ki (α1B receptor): 0.398 nM

COc1ccccc1N1CCN(CCCNC2=CC(=O)N(C)S(=O)(=O)N2C)CC1 [Compound 18, 5-{3-[4-(2-Methoxyphenyl)piperazin-1-yl]-propylamino}-2,6-dimethyl-1,1-dioxo-6H-[1,2,6]thiadiazin-3-one]
Ki (α1A receptor): 6.31 nM | Ki (5-HT1A receptor): 15.8 nM | Ki (α1B receptor): 126 nM

Cc1c(NCCCN2CCN(c3ccccc3O)CC2)n(C)c(=O)n(C)c1=O [Compound 13, 1,3,5-Trimethyl-6-[[3-[4-(2-hydroxyphenyl)-1-piperazinyl]propyl]amino]-2,4(1H,3H)-pyrimidinedione]
Ki (α1A receptor): 20 nM | Ki (5-HT1A receptor): 0.251 nM | Ki (α1B receptor): 20 nM

COc1cc(Br)c(Br)cc1N1CCN(CCCNc2c(C)c(=O)n(C)c(=O)n2C)CC1 [Compound 1, 1,3,5-Trimethyl-6-[[3-[4-(3,4-dibromo-6-methoxy-phenyl)-1-piperazinyl]propyl]amino]-2,4(1H,3H)-pyrimidinedione]
Ki (α1A receptor): 5.01 nM | Ki (5-HT1A receptor): 1.26 nM | Ki (α1B receptor): 5.01 nM

Cn1c(NCCCN2CCN(c3cccc4c3OCC(CO)O4)CC2)c(Cc2c(NCCCN3CCN(c4cccc5c4OCC(CO)O5)CC3)n(C)c(=O)n(C)c2=O)c(=O)n(C)c1=O (stereo not drawn) [Compound 10, Bis[1,3-dimethyl-6-[[3-[4-((2,3-dihydro-2-hydroxymethyl)-1,4-benzodioxin-5-yl)-1-piperazinyl]propyl]amino]-2,4(1H,3H)-pyrimidinedione-5,5'-yl]methane]
Ki (α1A receptor): 7.94 nM | Ki (5-HT1A receptor): 0.501 nM | Ki (α1B receptor): 7.94 nM

COc1ccccc1N1CCN(CCCNc2c(OC)c(=O)n(C)c(=O)n2C)CC1 [Compound 17]
Ki (α1A receptor): 50.1 nM | Ki (5-HT1A receptor): 2.51 nM | Ki (α1B receptor): 50.1 nM

CON=Cc1c(NCCCN2CCN(c3ccccc3OC)CC2)n(C)c(=O)n(C)c1=O [Compound 15, 1,3-Dimethyl-5-methoxyiminomethyl-6-[[3-[4-(2-methoxyohenyl)-1-piperazinyl]propyl]amino]-2,4(1H,3H)-pyrimidinedione]
Ki (α1A receptor): 5.01 nM | Ki (5-HT1A receptor): 1.58 nM | Ki (α1B receptor): 126 nM

C=CCc1c(NCCCN2CCN(c3ccccc3OC(F)(F)C(F)F)CC2)n(C)c(=O)n(C)c1=O [Compound 11, 5-Allyl-1,3-dimethyl-6-[[3-[4-(2-tetrafluoro-ethoxyphenyl)-1-piperazinyl]propyl]amino]-2,4(1H,3H)-pyrimidinedione]
Receptor affinity α1A, expressed in pKI values (α1A receptor): 9.6 | Receptor affinity 5-HT1A, expressed in pKI values (5-HT1A receptor): 9.3 | Receptor affinity α1B, expressed in pKI values (α1B receptor): 7.9

CCOC(=O)c1c(NCCCN2CCN(c3ccccc3OC)CC2)n(C)c(=O)n(C)c1=O [Compound 12, 1,3-Dimethyl-5-ethoxycarbonyl-6-[[3-[4-(2-methoxyhenyl)-1-piperazinyl]propyl]amino]-2,4(1H,3H)-pyrimidinedione]
Ki (α1A receptor): 25.1 nM | Ki (5-HT1A receptor): 6.31 nM | Ki (α1B receptor): 25.1 nM

COc1cc(N)ccc1N1CCN(CCCNc2c(C)c(=O)n(C)c(=O)n2C)CC1 [Compound 20, 1,3,5-Trimethyl-6-[[3-[4-(4-amino-2-methoxyphenyl)-1-piperazinyl]propyl]amino]-2,4(1H,3H)-pyrimidinedione]
Ki (α1A receptor): 100 nM | Ki (5-HT1A receptor): 2 nM | Ki (α1B receptor): 6310 nM

COc1ccccc1N1CCN(CCCNc2cc(=S)n(C)c(=O)n2C)CC1 [Compound 19, 6-{3-[4-(2-Methoxyphenyl)piperazin-1-yl]-propylamino}-1,3-dimethyl-4-thioxo-3,4-dihydro-1H-pyrimidin-2-one]
Ki (α1A receptor): 31.6 nM | Ki (5-HT1A receptor): 10 nM | Ki (α1B receptor): 31.6 nM

Cc1c(NCCCN2CCN(c3cccc4c3OCC(CO)O4)CC2)n(C)c(=O)n(C)c1=O (stereo not drawn) [Compound 9, 1,3,5-Trimethyl-6-[[3-[4-((2,3-dihydro-2-hydroxymethyl)-1,4-benzodioxin-5-yl)-1-piperazinyl]propyl]amino]-2,4(1H,3H)-pyrimidinedione]
Ki (α1A receptor): 2 nM | Ki (5-HT1A receptor): 0.2 nM | Ki (α1B receptor): 1580 nM

Cc1c(NCCCN2CCN(c3ccccc3OC(F)(F)C(F)F)CC2)n(C)c(=O)n(C)c1=O [Compound 6, 1,3,5-Trimethyl-6-[[3-[4-(2-tetrafluoro-ethoxyphenyl)-1-piperazinyl]-propyl]amino]-2,4(1H,3H)-pyrimidinedione]
Receptor affinity α1A, expressed in pKI values (α1A receptor): 9.4 | Receptor affinity 5-HT1A, expressed in pKI values (5-HT1A receptor): 9.7 | Receptor affinity α1B, expressed in pKI values (α1B receptor): 7.5

Cn1c(NCCCN2CCN(c3ccccc3OC(F)(F)C(F)F)CC2)c(CCC#N)c(=O)n(C)c1=O [Compound 8]
Receptor affinity α1A, expressed in pKI values (α1A receptor): 9.2 | Receptor affinity 5-HT1A, expressed in pKI values (5-HT1A receptor): 10.0 | Receptor affinity α1B, expressed in pKI values (α1B receptor): 7.5

COc1ccccc1N1CCN(CCCNc2c(C=NO)c(=O)n(C)c(=O)n2C)CC1 [Compound 16, 1,3-Dimethyl-5-hydroxyiminomethyl-6-[[3-[4-(2-methoxphenyl)-1-piperazinyl]propyl]amino]-2,4(1H,3H)-pyrimidinedione]
Ki (α1A receptor): 2 nM | Ki (5-HT1A receptor): 1 nM | Ki (α1B receptor): 50.1 nM

CCOc1ccccc1N1CCN(CCCNc2c(CCC#N)c(=O)n(C)c(=O)n2C)CC1 [Compound 3, 5-Cyanoethyl-1,3-dimethyl-6-[[3-[4-(2-ethoxyphenyl)-1-piperazinyl]propyl]amino]-2,4(1H,3H)-pyrimidinedione]
Ki (α1A receptor): 0.501 nM | Ki (5-HT1A receptor): 0.398 nM | Ki (α1B receptor): 63.1 nM

COc1cc([N+](=O)[O-])ccc1N1CCN(CCCNc2c(C)c(=O)n(C)c(=O)n2C)CC1 [Compound 14, 1,3,5-Trimethyl-6-[[3-[4-(2-methoxy-4-nitrophenyl)-1-piperazinyl]propyl]amino]-2,4(1H,3H)-pyrimidinedione]
Ki (α1A receptor): 251 nM | Ki (5-HT1A receptor): 200 nM | Ki (α1B receptor): 251 nM
